Values quoted from earlier work, collected in US20070053923A1, “Dna vaccine composition with enhanced immunogenicity” (priority 2003, published 2007).

System: immune cells
Conditions: via FPR and FPRL1, as reported

Substance: WKYMVM-NH2
- Activation of immune cells: potent activator of immune cells
